The values that follow come from patent US6399570B1, “Antimicrobial/endotoxin neutralizing polypeptide” (priority 1999, dated 2002).

Some results are limits rather than exact numbers.

Assay [1] has as its system lipid A from E. coli 0113. Kind of assay: LAL assay, neutralization of lipid A endotoxin activity (FIG. 6). The following applies: lipid A 30 ng/ml. The format is biochemical. As for the experimental part: The lipid A region of the LPS molecule is primarily responsible for the inflammatory and toxic effects of LPS. When LPS is released from the microbe, the lipid A portion may become more accessible. The following assays were performed to determine the potential of various amino-terminal LF polypeptides to neutralize the endotoxic activity of the lipid A portion of LPS. LF, the 6 kDa fragment of LF, LF-33, LF-27, and polymyxin B were each tested for the ability to neutralize the endotoxin activity of lipid A from E. coli 0113 (30 ng/ml), using a LAL assay. […] The endotoxin activity of the smaller fragments of LF indicate that endotoxin-neutralizing activity of these small polypeptides is masked when in the context of the intact LF molecule.

Assay [2] concerns E. coli 0111. Put plainly: Potentiation of Rifampicin by LF polypeptides. The following applies: 5 μM polypeptide + 0.9 μg/ml rifampicin, 6 hr.
Method: E. coli cultures were exposed to sub-optimal doses of Rifampicin in the presence or absence of sub-optimal doses of the indicated polypeptides (FIG. 5), and were incubated for 6 hours, at which point CFU were determined.
E. coli 0111 were grown overnight as described above. Overnight cultures were then diluted 1:16,000 in 1% BP/PBS containing 0.9 μg/ml Rifampicin (Sigma-Aldrich Fine chemicals) and 5 μM LF polypeptides as indicated. Control cultures were those not exposed to any polypeptide. The diluted cultures were then incubated at 37° C. for 6 hr with aeration by shaking. The number of viable bacteria were then determined by dilution plating samples from each group and subsequently counting colony forming units (CFU). All values represent the average of duplicate independent experiments.
The next assay relates to N. min. LPS. Kind of assay: Limulus ELISA, ENC50 against N. min. LPS. The following applies: endotoxin 200 EU/ml; mean +/− SD. The format is biochemical, Neisseria meningitidis. The procedure:
The peptide-mediated inhibition of endotoxin-induced Limulus amebocyte lysate (LAL) coagulation was measured with a sensitive LAL assay (Zhang et al., J. Clin. Microbiol. 32: 416-422 (1994)). Limulus ELISA is an endotoxin assay based on activation of the LAL coagulation by endotoxin and detection of the generated peptide-C immunoreactivity with an ELISA using a monoclonal antibody to the polypeptide. Endotoxin was defined to be neutralized when it lost its ability to activate the LAL enzymes. The 50% endotoxin-neutralizing concentration (ENC50) reflects the potency of an anti-endotoxin agent; a low ENC50 indicates high potency. Table 2 lists the determined ENC50 value of each anti-endotoxin agent against lipid A and four different types of LPS. The potency of each anti-endotoxin agent varied depending on the type of endotoxin. […] The only difference between the sequence of LF-33 and LF-27 is that LF-27 lacks the first six residues (GRRRRS) at the N-terminus of LF-33. Remarkably, this deletion led to dramatic loss of the endotoxin-neutralizing capacity of the polypeptide in this assay. Binding of serum proteins to endotoxin neutralizes the endotoxin activity in this assay by preventing endotoxin from activating LAL (Emancipator et al., Infect. Immun. 60: 596-601 (1992)).
LPS. […] LPS (purity >99%) from Neisseria meningitidis was prepared from the group B strain #6275 and its potency was 25 EU/ng. […] The potency of the above endotoxin was determined with the Limulus enzyme-linked immunosorbent assay (ELISA, 43) in comparison with US Pharmacopeia reference standard endotoxin EC-5.
Briefly, 25 μl endotoxin solution (200 EU/ml) was mixed with an equal volume of test materials in a series of two-fold dilution in 0.15 M NaCl in a sterile 96-well tissue culture plate (Nunc A/S, Roskilde, Denmark), and incubated at 37° C. for 1 h in a dry-air incubator. […] The endotoxin activity was then quantified with the use of Limulus ELISA (Zhang et al., J. Clin. Microbiol. 32: 416-422 (1994)). […] The high sensitivity of the assay allowed for very low levels of the endotoxin activity to be detected. […]
On the technique in general: In an ELISA, binding on a coated surface is turned into a signal by an enzyme label.

For assay [3], the system named is E. coli 0111. Kind of assay: Time course of E. coli growth in the presence of LF polypeptides. In kind it is cell-based. The following applies: 50 μM, seven hour time course, OD 600 nm. As for the experimental part:
To investigate whether regions of the molecule involved in GAG binding activity of the 6 kDa LF polypeptide (generated from pepsin digestion) are also involved in the antimicrobial activity of the 6 kDa polypeptide of the present invention, polypeptides of various lengths corresponding to the N-terminal amino acid sequence of LF were tested for the ability to inhibit the growth of E. coli 0111. Overnight cultures were grown over a seven hour time course in the presence of 50 μM of either LF, a 33-mer corresponding to amino acids 1-33 of LF, a 26-mer corresponding to […] of LF, a 27-mer corresponding to amino acids 1-27 of LF. […] This is consistent with LF and the 33-mer inhibiting bacterial growth via different mechanisms. […] The failure of the 26-mer and the 27-mer to inhibit culture growth emphasizes the importance of retaining both clusters of basic residues, at the termini of the 33-mer, for the antimicrobial functionality of polypeptides derived from the N-terminal LF sequence.
Time course of E. coli growth in the presence of LF polypeptides. E. coli cells, clinical isolate strain 0111, were obtained from ATCC. […] Culture growth was monitored spectrophotometrically by measuring optical density at 600 nm at each indicated time point.

For “6 kDa polypeptide: 6 kDa fragment produced by cathepsin D digestion of human LF, amino acids 1-49 of SEQ ID NO: 2 (GRRRRSVQWCAVSQPEATKCFQWQRNMRKVRGPPVSCIKRDSPIQCIQA; listed as Homo sapiens)”, the “lipid A neutralizing activity” value in assay [1] is listed as “neutralized lipid A”. Also, the “effect on the antimicrobial activity of rifampicin (viable bacteria)” value with E. coli 0111 [2] was “more than three orders of magnitude”.
The term IC50 denotes the concentration at which inhibition is half-maximal. Regarding `CSCC[C@H](NC(=O)[C@H](CC(N)=O)NC(=O)[C@H](CCCNC(=N)N)NC(=O)[C@H](CCC(N)=O)NC(=O)[C@H](Cc1c[nH]c2ccccc12)NC(=O)[C@H](CCC(N)=O)NC(=O)[C@H](Cc1ccccc1)NC(=O)[C@H](CS)NC(=O)[C@H](CCCCN)NC(=O)[C@@H](NC(=O)[C@H](C)NC(=O)[C@H](CCC(=O)O)NC(=O)[C@@H]1CCCN1C(=O)[C@H](CCC(N)=O)NC(=O)[C@H](CO)NC(=O)[C@@H](NC(=O)[C@H](C)NC(=O)[C@H](CS)NC(=O)[C@H](Cc1c[nH]c2ccccc12)NC(=O)[C@H](CCC(N)=O)NC(=O)[C@@H](N)C(C)C)C(C)C)[C@@H](C)O)C(=O)N[C@@H](CCCNC(=N)N)C(=O)N[C@@H](CCCCN)C(=O)N[C@H](C(=O)N[C@@H](CCCNC(=N)N)C(=O)NCC(=O)N1CCC[C@H]1C(=O)O)C(C)C` [LF-27], in the assay on N. min. LPS, the “ENC50 against N. min. LPS” value is recorded as “no detectable activity” and the IC50 is greater than 300 µM. Besides, the “growth of E. coli 0111 cultures” value in the assay with E. coli 0111 [3] is on record as “failure”. The “lipid A neutralizing activity” value in assay [1] is on record as “neutralized lipid A”. Further, the “effect on the antimicrobial activity of rifampicin (viable bacteria)” value in the assay on E. coli 0111 [2] is “no significant effect”.
